Results: patent publication US10358434B2, “2-(3-pyridinyl)-1H-benzimidazole derivative compound and medicament containing same” (NIHON MEDI-PHYSICS CO., LTD., priority 2014, dated 2019)

Key:
[1] = In vivo kinetics experiment (radioactivity distribution); design: species or system Wistar male rat; conditions: rat i.v., mean ± SD
How it was run: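 Tissue radioactivity (% ID/g) and adrenal-to-blood, liver, kidney, small intestine, muscle and fat ratios determined at 10, 30 and 60 min post-dose. Tracers (approximately 1 to 3.7 MBq, saline with 1 w/v % ascorbic acid) injected i.v. into caudal vein of anesthetized 9-week male Wistar rats; organs excised, weighed, counted.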

[2] = Plasma stability evaluation (TLC analysis); assay type: in vitro ADME; conditions: 37° C., 60 minutes, TLC analysis
How it was run: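 TLC analysis, using each compound's synthesis conditions, judged stability after methanol was added and samples were centrifuged to remove protein. Beforehand, each tracer had spent 60 minutes at 37° C in pooled heparinized normal human plasma.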

[3] = system: human adrenal gland section expressing aldosterone-producing adenoma; test: In vitro autoradiography using human adrenal adenoma; assay type: binding; conditions: section of FIG. 17(b)
How it was run: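 Autoradiography readout: PSL in equal-sized ROIs over adenoma (B2) and normal adrenal cortex (B1), expressed as B2/B1 and decay-corrected using half-life, applied activity and plate contact time. Tissue was surgically excised human adrenal, frozen and cut at 7 μm, incubated 10 min with 5-33 kBq/mL tracer in BSA-containing PBS, then imaged after 16-20 h exposure.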

Q: For `COc1cc([123I])cc2c1nc(-c1cncc(Cn3ccnc3)c1)n2C1CC1` [[^123I] 609, 1-Cyclopropyl-2-[5-(imidazol-1-ylmethyl)pyridin-3-yl]-6-[^123I]iodo-4-methoxybenzimidazole], which “Adrenal gland/blood ratio of radioactivity accumulation” value (“Adrenal gland/blood ratio” below) ([1]; 10 min after administration) is on record?
A: 70.18 ± 9.10

Q: What about the “Adrenal gland/fat ratio of radioactivity accumulation” value (“Adrenal gland/fat ratio” for short) ([1]; 10 min after administration) of the same molecule?
A: 92.34 ± 17.88

Q: And the “Adrenal gland/kidney ratio of radioactivity accumulation” value (“Adrenal gland/kidney ratio” below) ([1]; 10 min after administration)?
A: 7.38 ± 1.46

Q: And the “Adrenal gland/liver ratio of radioactivity accumulation” value (from here on “Adrenal gland/liver ratio”) ([1]; 10 min after administration)?
A: 1.55 ± 0.09

Q: And the “Adrenal gland/muscle ratio of radioactivity accumulation” value (from here on “Adrenal gland/muscle ratio”) ([1]; 10 min after administration)?
A: 46.03 ± 17.74

Q: What about the “Adrenal gland/small intestine ratio of radioactivity accumulation” value (shortened to “Adrenal gland/small intestine ratio”) ([1]; 10 min after administration) of the same molecule?
A: 5.04 ± 0.97

Q: What about the “Radioactivity distribution Adrenal gland” value ([1]; 10 min after administration) of the same molecule?
A: 8.54 ± 1.17 % ID/g

Q: And the “Radioactivity distribution Bladder (including urine)” value (“Radioactivity distribution Bladder” for short) ([1]; 10 min after administration)?
A: 0.17 ± 0.08 % ID/g

Q: And the “Radioactivity distribution Blood” value ([1]; 10 min after administration)?
A: 0.12 ± 0.00 % ID/g

Q: What about the “Radioactivity distribution Fat” value ([1]; 10 min after administration) of the same molecule?
A: 0.09 ± 0.01 % ID/g

Q: And the “Radioactivity distribution Femur” value ([1]; 10 min after administration)?
A: 0.37 ± 0.06 % ID/g

Q: What about the “Radioactivity distribution Heart” value ([1]; 10 min after administration) of the same molecule?
A: 0.36 ± 0.01 % ID/g

Q: And the “Radioactivity distribution Kidney” value ([1]; 10 min after administration)?
A: 1.17 ± 0.08 % ID/g

Q: And the “Radioactivity distribution Large intestine” value ([1]; 10 min after administration)?
A: 0.16 ± 0.01 % ID/g

Q: What about the “Radioactivity distribution Liver” value ([1]; 10 min after administration) of the same molecule?
A: 5.50 ± 0.46 % ID/g

Q: What about the “Radioactivity distribution Lung” value ([1]; 10 min after administration) of the same molecule?
A: 0.51 ± 0.04 % ID/g

Q: And the “Radioactivity distribution Muscle (lower limbs)” value ([1]; 10 min after administration)?
A: 0.20 ± 0.06 % ID/g

Q: What about the “Radioactivity distribution Remaining whole body” value ([1]; 10 min after administration) of the same molecule?
A: 0.20 ± 0.03 % ID/g

Q: What about the “Radioactivity distribution Small intestine” value ([1]; 10 min after administration) of the same molecule?
A: 1.71 ± 0.18 % ID/g

Q: And the “Radioactivity distribution Spleen” value ([1]; 10 min after administration)?
A: 0.82 ± 0.05 % ID/g

Q: What about the “Radioactivity distribution Stomach” value ([1]; 10 min after administration) of the same molecule?
A: 0.65 ± 0.25 % ID/g

Q: And the “Radioactivity distribution Testis” value ([1]; 10 min after administration)?
A: 0.05 ± 0.00 % ID/g

Q: And the “Radioactivity distribution Whole brain” value ([1]; 10 min after administration)?
A: 0.02 ± 0.00 % ID/g

Q: And the “Adrenal gland/blood ratio” value ([1]; 30 min after administration)?
A: 78.36 ± 23.36

Q: What about the “Adrenal gland/fat ratio” value ([1]; 30 min after administration) of the same molecule?
A: 110.76 ± 35.85

Q: What about the “Adrenal gland/kidney ratio” value ([1]; 30 min after administration) of the same molecule?
A: 11.13 ± 2.62

Q: And the “Adrenal gland/liver ratio” value ([1]; 30 min after administration)?
A: 2.54 ± 0.51

Q: And the “Adrenal gland/muscle ratio” value ([1]; 30 min after administration)?
A: 66.27 ± 15.78

Q: And the “Adrenal gland/small intestine ratio” value ([1]; 30 min after administration)?
A: 2.54 ± 0.80

Q: And the “Radioactivity distribution Adrenal gland” value ([1]; 30 min after administration)?
A: 11.21 ± 3.24 % ID/g

Q: What about the “Radioactivity distribution Bladder” value ([1]; 30 min after administration) of the same molecule?
A: 0.80 ± 0.10 % ID/g

Q: And the “Radioactivity distribution Blood” value ([1]; 30 min after administration)?
A: 0.14 ± 0.01 % ID/g

Q: And the “Radioactivity distribution Fat” value ([1]; 30 min after administration)?
A: 0.10 ± 0.02 % ID/g

Q: What about the “Radioactivity distribution Femur” value ([1]; 30 min after administration) of the same molecule?
A: 0.29 ± 0.04 % ID/g

Q: What about the “Radioactivity distribution Heart” value ([1]; 30 min after administration) of the same molecule?
A: 0.36 ± 0.02 % ID/g

Q: And the “Radioactivity distribution Kidney” value ([1]; 30 min after administration)?
A: 1.00 ± 0.07 % ID/g

Q: And the “Radioactivity distribution Large intestine” value ([1]; 30 min after administration)?
A: 0.18 ± 0.03 % ID/g

Q: And the “Radioactivity distribution Liver” value ([1]; 30 min after administration)?
A: 4.36 ± 0.46 % ID/g

Q: And the “Radioactivity distribution Lung” value ([1]; 30 min after administration)?
A: 0.42 ± 0.05 % ID/g

Q: And the “Radioactivity distribution Muscle (lower limbs)” value ([1]; 30 min after administration)?
A: 0.17 ± 0.03 % ID/g

Q: And the “Radioactivity distribution Remaining whole body” value ([1]; 30 min after administration)?
A: 0.14 ± 0.01 % ID/g

Q: And the “Radioactivity distribution Small intestine” value ([1]; 30 min after administration)?
A: 4.44 ± 0.63 % ID/g

Q: What about the “Radioactivity distribution Spleen” value ([1]; 30 min after administration) of the same molecule?
A: 0.43 ± 0.03 % ID/g

Q: And the “Radioactivity distribution Stomach” value ([1]; 30 min after administration)?
A: 1.27 ± 0.17 % ID/g

Q: And the “Radioactivity distribution Testis” value ([1]; 30 min after administration)?
A: 0.07 ± 0.01 % ID/g

Q: And the “Radioactivity distribution Whole brain” value ([1]; 30 min after administration)?
A: 0.02 ± 0.00 % ID/g

Q: And the “Adrenal gland/blood ratio” value ([1]; 60 min after administration)?
A: 87.48 ± 12.64

Q: And the “Adrenal gland/fat ratio” value ([1]; 60 min after administration)?
A: 147.76 ± 20.75

Q: And the “Adrenal gland/kidney ratio” value ([1]; 60 min after administration)?
A: 13.00 ± 2.52

Q: And the “Adrenal gland/liver ratio” value ([1]; 60 min after administration)?
A: 3.99 ± 0.57

Q: And the “Adrenal gland/muscle ratio” value ([1]; 60 min after administration)?
A: 103.59 ± 13.53

Q: And the “Adrenal gland/small intestine ratio” value ([1]; 60 min after administration)?
A: 1.53 ± 0.14

Q: And the “Radioactivity distribution Adrenal gland” value ([1]; 60 min after administration)?
A: 11.04 ± 1.72 % ID/g

Q: And the “Radioactivity distribution Bladder” value ([1]; 60 min after administration)?
A: 2.03 ± 0.70 % ID/g

Q: What about the “Radioactivity distribution Blood” value ([1]; 60 min after administration) of the same molecule?
A: 0.13 ± 0.00 % ID/g

Q: And the “Radioactivity distribution Fat” value ([1]; 60 min after administration)?
A: 0.07 ± 0.01 % ID/g

Q: And the “Radioactivity distribution Femur” value ([1]; 60 min after administration)?
A: 0.33 ± 0.03 % ID/g

Q: And the “Radioactivity distribution Heart” value ([1]; 60 min after administration)?
A: 0.33 ± 0.02 % ID/g

Q: What about the “Radioactivity distribution Kidney” value ([1]; 60 min after administration) of the same molecule?
A: 0.85 ± 0.03 % ID/g

Q: And the “Radioactivity distribution Large intestine” value ([1]; 60 min after administration)?
A: 0.63 ± 0.43 % ID/g

Q: And the “Radioactivity distribution Liver” value ([1]; 60 min after administration)?
A: 2.77 ± 0.15 % ID/g

Q: What about the “Radioactivity distribution Lung” value ([1]; 60 min after administration) of the same molecule?
A: 0.38 ± 0.02 % ID/g

Q: What about the “Radioactivity distribution Muscle (lower limbs)” value ([1]; 60 min after administration) of the same molecule?
A: 0.11 ± 0.00 % ID/g

Q: What about the “Radioactivity distribution Remaining whole body” value ([1]; 60 min after administration) of the same molecule?
A: 0.10 ± 0.00 % ID/g

Q: What about the “Radioactivity distribution Small intestine” value ([1]; 60 min after administration) of the same molecule?
A: 7.17 ± 0.45 % ID/g

Q: What about the “Radioactivity distribution Spleen” value ([1]; 60 min after administration) of the same molecule?
A: 0.30 ± 0.01 % ID/g

Q: And the “Radioactivity distribution Stomach” value ([1]; 60 min after administration)?
A: 1.47 ± 0.33 % ID/g

Q: And the “Radioactivity distribution Testis” value ([1]; 60 min after administration)?
A: 0.07 ± 0.01 % ID/g

Q: What about the “Radioactivity distribution Whole brain” value ([1]; 60 min after administration) of the same molecule?
A: 0.01 ± 0.00 % ID/g

Q: What about the “Radiochemical purity after incubation in human plasma” value [2] of the same molecule?
A: 86%

Q: What about the B2/B1 accumulation ratio [3] of the same molecule?
A: 0.85

Q: What about the “B2 (PSL value, aldosterone-producing adenoma)” value ([3]; site 71b) of the same molecule?
A: 3805

Q: What about the “B1 (PSL value, normal adrenal cortex)” value ([3]; site 72b) of the same molecule?
A: 4479
